The subject of the experiment is wild type C. elegans. Kind of experiment: Pheromone-induced dauer formation in wild type C. elegans in the presence of DHCA. The class given is in vivo. The settings on record: wild type (N2) C. elegans treated by pheromone, pheromone alone around 20% dauer. As for the experimental part: FIG. 5 is a bar graph showing that dihydrocaffeic acid (DHCA) is the ligand for DCAR-1 GPCR. DHCA is the food signal that competes with the dauer-inducing pheromone to suppress dauer formation. (*P<0.01, t-test, N2 treated with 0 nM DHCA compared to N2 treated with 25 nM DHCA and N2 treated with 25 nM DHCA compared to N2 treated with 100 nM DHCA. ns, no statistical significant difference.) Recovery of dauer larvae requires the presence of food. G protein-coupled receptors (GPCRs) detect molecules such as food odors and activate internal signal transduction pathways. We identified a GPCR, DCAR-1, which is involved in detection of food signals in C. elegans. […] The recovery percentage of daf-2 and daf-7 mutant dauer larvae decreased by 25% when dcar-1 is mutated. Dihydrocaffeic acid (DHCA) is the ligand for DCAR-1. […] When wild type C. elegans was treated by pheromone, around 20% of animals entered dauer. However, in the presence of 25 nM DHCA, the percentage of dauer was decreased to 5%. […] Thus, DCAR-1 inhibitors act to block detection of foods signals by infective nematode parasites and to suppress the growth of parasites to adults.

`O=C(O)CCc1ccc(O)c(O)c1` [DHCA, Dihydrocaffeic acid]: the percentage of dauer is, setting by setting: (25 nM DHCA) 5%; (100 nM DHCA) “none of animals formed dauer”.

The values above are taken from patent US12233036B2, “Inhibitors of autophagy and DCAR-1 as novel anthelmintic agents” (FLORIDA ATLANTIC UNIVERSITY BOARD OF TRUSTEES, priority 2019, dated 2025).
